Experimental data published in patent US20250214942A1, “INHIBITORS OF RECEPTOR INTERACTING PROTEIN KINASE I FOR THE TREATMENT OF DISEASE” (Board of Regents, The University of Texas System, priority 2019, published 2025).

Tests used:
RIPK1 = RIPK1 (Homo sapiens (Human), UniProt Q13546); experiment: ADP-Glo kinase assay (RIPK1 activity, conversion of ATP to ADP); assay type: biochemical; conditions: for IC50: 5 nM RIPK1, 50 μM ATP, 6 h reaction, read-out: RIPK1 Enzyme Avg IC50
Summary of the method: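 ADP-Glo luminescence of ATP-to-ADP conversion by 5 nM RIPK1 with 50 μM ATP (final), 6 h reaction after 10 min compound preincubation at rt. Buffer was 50 mM HEPES pH 7.5, 30 mM MgCl2, 0.05% BSA, 0.02% CHAPS. IC50 from four-parameter logistic fit.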

[1] = test system: human monocytic cell line U937; experiment: Human U937 cellular necroptosis assay (TNFalpha + z-VAD-FMK, Cell Titer-Glo viability); assay type: cell-based; conditions: Homo sapiens, U-937, 22 h, U937 cells, 25 ng/mL human TNFalpha + 25 μM z-VAD-FMK, read-out: hU937 Avg IC50
Summary of the method: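 Cells resuspended in phenol red-free RPMI with 10% FBS, stimulated with 25 ng/mL human TNFalpha plus 25 μM z-VAD-FMK, then given serially diluted compound for 22 h at 37° C, 5% CO2. Viability by Cell Titer-Glo 2.0 luminescence; IC50 from four-parameter logistic fit, averaged across runs.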

RIPK1, sequence (Q13546 1-327): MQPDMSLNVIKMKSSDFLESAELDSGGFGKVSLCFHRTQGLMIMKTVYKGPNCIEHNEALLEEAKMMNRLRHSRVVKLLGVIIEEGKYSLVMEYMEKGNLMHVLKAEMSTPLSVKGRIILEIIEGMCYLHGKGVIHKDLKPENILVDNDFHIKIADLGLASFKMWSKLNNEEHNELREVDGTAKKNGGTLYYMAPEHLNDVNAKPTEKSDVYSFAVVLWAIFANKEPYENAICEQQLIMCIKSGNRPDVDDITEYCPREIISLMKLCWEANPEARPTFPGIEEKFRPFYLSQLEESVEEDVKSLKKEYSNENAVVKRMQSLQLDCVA

Row | Structure (SMILES) | IC50 (RIPK1) [µM] | IC50 [1] [µM] | observed potency relative to the other enantiomer (RIPK1; enantiomers separated by SFC, assay not named)
1 | O=C(N1N=CCC1c1cc(F)cc(F)c1)C12CC(Cn3ncc4ccncc43)(C1)C2 (stereo not drawn) [Example 87, (3-((1H-pyrazolo[3,4-c]-pyridin-1-yl)methyl)bicyclo-[1.1.1]pentan-1-yl)(5-(3,5-difluorophenyl)-4,5-dihydro-1H-pyrazol-1-yl)methanone] | 0.021 | 0.033 | 
2 | O=C(N1N=CCC1c1cc(F)cc(F)c1)C12CC(Cn3cnc4ccccc43)(C1)C2 (stereo not drawn) [Example 23, (3-((1H-Benzo[d]imidazol-1-yl)methyl)bicyclo[1.1.1]pentan-1-yl)(5-(3,5-difluorophenyl)-4,5-dihydro-1H-pyrazol-1-yl)methanone] | 0.03 | 0.158 | 
3 | Cc1ncnc(OCC23CC(C(=O)N4CC(F)CC4c4cccc(F)c4)(C2)C3)c1F (stereo not drawn) [Example 93, (4-fluoro-2-(3-fluorophenyl)-pyrrolidin-1-yl)(3-(((5-fluoro-6-methylpyrimidin-4-yl)oxy)methyl)bicyclo[1.1.1]-pentan-1-yl)methanone] | 0.079 | 0.398 | 
4 | Cc1cncc(C2CC=NN2C(=O)C23CC(Cn4cc(C#N)cn4)(C2)C3)n1 (stereo not drawn) [Example 169, 1-((3-(5-(6-methylpyrazin-2-yl)-4,5-dihydro-1H-pyrazole-1-carbonyl)bicyclo[1.1.1]-pentan-1-yl)methyl)-1H-pyrazole-4-carbonitrile] | 0.343 | 3.31 | 
5 | O=C(N1N=CCC1c1cc(F)cc(F)c1)C12CC(Cn3ncc4c(F)cccc43)(C1)C2 (stereo not drawn) [Example 22, (5-(3,5-Difluorophenyl)-4,5-dihydro-1H-pyrazol-1-yl)(3-((4-fluoro-1H-indazol-1-yl)methyl)bicyclo[1.1.1]pentan-1-yl)methanone] | 0.011 | 0.005 | 
6 | COc1cccc(C(F)C23CC(C(=O)N4N=CCC4c4cc(F)cc(F)c4)(C2)C3)c1 (stereo not drawn) [Example 226, (5-(3,5-difluorophenyl)-4,5-dihydro-1H-pyrazol-1-yl)(3-(fluoro(3-methoxyphenyl)-methyl)bicyclo[1.1.1]pentan-1-yl)methanone] | 0.035 | 0.051 | 
7 | N#Cc1cnn2ccn(CC34CC(C(=O)N5N=CCC5c5cc(F)cc(F)c5)(C3)C4)c12 (stereo not drawn) [Example 146, 1-((3-(5-(3,5-difluorophenyl)-4,5-dihydro-1H-pyrazole-1-carbonyl)bicyclo[1.1.1]-pentan-1-yl)methyl)-1H-imidazo[1,2-b]pyrazole-7-carbonitrile] | 0.324 | 1.92 | 
8 | CC(Oc1cc(Cl)ncn1)C12CC(C(=O)N3CC(F)CC3c3cccc(F)c3)(C1)C2 (stereo not drawn) [Example 43, (3-(1-((6-Chloropyrimidin-4-yl)oxy)ethyl)bicyclo[1.1.1]pentan-1-yl)(4-fluoro-2-(3-fluorophenyl)pyrrolidin-1-yl)methanone] | 1.7 | 4.21 | 
9 | O=C(N1N=CCC1c1cc(F)cc(F)c1)C12CC(Cn3cc4ccc(F)cc4n3)(C1)C2 (stereo not drawn) [Example 62, (5-(3,5-difluorophenyl)-4,5-dihydro-1H-pyrazol-1-yl)(3-((6-fluoro-2H-indazol-2-yl)methyl)bicyclo[1.1.1]-pentan-1-yl)methanone] | 0.046 | 0.133 | 
10 | Cc1cc(F)c([C@H]2CC=NN2C(=O)C23CC(COc4cnc(C#N)cn4)(C2)C3)cc1F [Example 196, (R)-5-((3-(5-(2,5-difluoro-4-methylphenyl)-4,5-dihydro-1H-pyrazole-1-carbonyl)bicyclo[1.1.1]pentan-1-yl)methoxy)pyrazine-2-carbonitrile] |  | 0.631 | less potent isomer
11 | N#Cc1cnc2cnn(CC34CC(C(=O)N5N=CCC5c5cc(F)cc(F)c5)(C3)C4)c2c1 (stereo not drawn) [Example 218, 1-((3-(5-(3,5-difluorophenyl)-4,5-dihydro-1H-pyrazole-1-carbonyl)bicyclo[1.1.1]pentan-1-yl)methyl)-1H-pyrazolo[4,3-b]pyridine-6-carbonitrile] | 0.025 | 0.113 | 
12 | N#Cc1cnn(CC23CC(C(=O)N4N=CCC4c4cnccn4)(C2)C3)c1 (stereo not drawn) [Example 167, 1-((3-(5-(pyrazin-2-yl)-4,5-dihydro-1H-pyrazole-1-carbonyl)bicyclo[1.1.1]-pentan-1-yl)methyl)-1H-pyrazole-4-carbonitrile] | 0.306 | 1.88 | 
13 | O=C(N1N=CCC1c1cc(F)cc(F)c1)C12CC(Cn3cc(C(F)(F)F)cn3)(C1)C2 (stereo not drawn) [Example 72, (5-(3,5-difluorophenyl)-4,5-dihydro-1H-pyrazol-1-yl)(3-((4-(trifluoromethyl)-1H-pyrazol-1-yl)methyl)bicyclo-[1.1.1]pentan-1-yl)methanone] | 0.078 | 0.098 | 
14 | N#Cc1cncc(C2CC=NN2C(=O)C23CC(Cn4cc(C#N)cn4)(C2)C3)c1 (stereo not drawn) [Example 168, 5-(1-(3-((4-cyano-1H-pyrazol-1-yl)methyl)-bicyclo[1.1.1]pentane-1-carbonyl)-4,5-dihydro-1H-pyrazol-5-yl)nicotinonitrile] | 0.865 | 6.19 | 
15 | O=C(N1N=CCC1c1cc(F)cc(F)c1)C12CC(Cn3ccc4ncc(F)cc43)(C1)C2 (stereo not drawn) [Example 134, (5-(3,5-difluorophenyl)-4,5-dihydro-1H-pyrazol-1-yl)(3-((6-fluoro-1H-pyrrolo[3,2-b]-pyridin-1-yl)methyl)-bicyclo[1.1.1]pentan-1-yl)methanone] | 0.024 | 0.046 | 
16 | O=C(N1N=CCC1c1cc(F)cc(F)c1)C12CC(COc3cccc(F)c3Cl)(C1)C2 (stereo not drawn) [Example 332, (3-((2-chloro-3-fluoro-phenoxy)methyl)bicyclo-[1.1.1]pentan-1-yl)(5-(3,5-difluorophenyl)-4,5-dihydro-1H-pyrazol-1-yl)methanone] | 0.019 | 0.033 | 
17 | O=C(N1N=CCC1c1cc(F)cc(F)c1)C12CC(Cn3ncc4cccnc43)(C1)C2 (stereo not drawn) [Example 89, (3-((1H-pyrazolo[3,4-b]-pyridin-1-yl)methyl)bicyclo-[1.1.1]pentan-1-yl)(5-(3,5-difluorophenyl)-4,5-dihydro-1H-pyrazol-1-yl)methanone] | 0.025 | 0.137 | 
18 | O=C(N1N=CCC1c1cc(F)cc(F)c1)C12CC(Cn3ncc4ccc(F)cc43)(C1)C2 (stereo not drawn) [Example 70, (5-(3,5-difluorophenyl)-4,5-dihydro-1H-pyrazol-1-yl)(3-((6-fluoro-1H-indazol-1-yl)-methyl)bicyclo[1.1.1]pentan-1-yl)methanone] | 0.034 | 0.026 | 
19 | N#Cc1cccc(C2CC=NN2C(=O)C23CC(Cn4cc(C#N)cn4)(C2)C3)c1 (stereo not drawn) [Example 137, 1-((3-(5-(3-cyanophenyl)-4,5-dihydro-1H-pyrazole-1-carbonyl)bicyclo[1.1.1]-pentan-1-yl)methyl)-1H-pyrazole-4-carbonitrile] | 0.379 | 2.69 | 
20 | O=C(N1N=CCC1c1cc(F)cc(F)c1)C12CC(Cn3ncc4cc(F)ccc43)(C1)C2 (stereo not drawn) [Example 4, (5-(3,5-Difluorophenyl)-4,5-dihydro-1H-pyrazol-1-yl)(3-((5-fluoro-1H-indazol-1-yl)methyl)bicyclo[1.1.1]pentan-1-yl)methanone] | 0.019 | 0.009 | 
21 | N#Cc1ccc2c(cnn2CC23CC(C(=O)N4CCC4c4ccc(Cl)cc4)(C2)C3)c1 (stereo not drawn) [Example 233, 1-((3-(2-(4-chlorophenyl)-azetidine-1-carbonyl)bicyclo-[1.1.1]pentan-1-yl)methyl)-1H-indazole-5-carbonitrile] | 0.223 | 1.19 | 
